Data published in patent US20060234390A1, “Process for determining target function and identifying drug leads” (priority 2002, published 2006).
Entries after “also recorded” stand apart in the source; their conditions may differ.

Legend:
[1] = target: T1, P38 MAP kinase (Homo sapiens, UniProt Q16539); assay: HPLC based Chemical Array binding assay (protein-bound vs free compounds, UV and mass spectrum); settings: for identity of the compound extracted from the mixture and released from the protein (mass spectrum): 5 uM P38 MAP kinase + 5 uM mixture of Quinine and 86002
T1 construct: purchased Sigma
T1 sequence (Q16539 whole entry): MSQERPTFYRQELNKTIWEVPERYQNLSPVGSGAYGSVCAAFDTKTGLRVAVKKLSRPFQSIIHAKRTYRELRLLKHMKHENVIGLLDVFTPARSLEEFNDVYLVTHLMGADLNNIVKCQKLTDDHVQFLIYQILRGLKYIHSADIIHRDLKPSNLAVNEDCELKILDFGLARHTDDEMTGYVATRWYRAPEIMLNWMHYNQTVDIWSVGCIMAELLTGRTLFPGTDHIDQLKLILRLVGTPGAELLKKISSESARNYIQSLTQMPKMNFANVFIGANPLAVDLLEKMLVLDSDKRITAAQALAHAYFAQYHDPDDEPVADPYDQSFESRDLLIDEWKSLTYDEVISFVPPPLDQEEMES
Description: (§1) Drug-like chemical compounds representing a collection of drug-like chemical scaffolds (Sigma-Aldrich, ICN, Calbiochem) were weighed and mixed to a final concentration of 20 uM each in 50 mM ammonium acetate pH 7, 10% methanol. 1 uM to 20 uM tubulin or P38 MAP kinase (Sigma) were dispensed into HPLC low volume sample cuvettes (Waters) and mixed with 0.5 uM to 20 uM compounds. After mixing and a 15 minute 37° C. incubation, the cuvettes were placed on ice and injected into the HPLC (Waters 2690) using an autoinjector (Waters) onto a 150 mm×2.1 mm ID Pinkerton GFF II column (Regis Technologies) for dual size exclusion and phase separation with a 50 mM ammonium acetate, 10% methanol running buffer.
(§2) We optimized the column dimensions and the choice of resin to maximize the separation of the compounds bound to the protein targets from the unbound compounds. Resins which elute protein in the void volume and small column diameters and lengths which minimize the void volume were used. Such columns minimize the amount of dilution of the protein sample and minimize the time required for each assay, thereby minimizing the amount of bound compound that dissociates from the protein (as governed by the Koff rate). […] A number of HPLC columns, including the Regis 150 mm×2.1 mm GFF II column, a 1.0 mm×100 mm YMC Diol column, a 2.1 mm×150 mm Phenomonex Polyhydroxymethacrylate (Polysep) column, and a Jordi 2.1×150 mm Divinyl Benzene column, were tested. Similarly, other running buffers were tested in which the salt and methanol concentration were varied, and the ratio of protein target to small compounds in the binding reaction was varied from 1000:1 to 1:1000. Resins representative of different classes were tested for their ability to separate the protein fraction from the drug-like small molecule compounds, and to minimize the cycle time for all of the compounds to elute from the column. These characteristics of the columns are determined by surface properties and limitations on flow rates due to resins collapsing under backpressure. […] In applications where a longer cycle time (e.g., over 10 minutes per run) is acceptable, any of the above columns or a series of the above columns may be used.
(§3) For shorter cycle times, other columns may be used.

[2] = tested on: tubulin; assay: as above; settings: tubulin 0, 5 and 20 uM; 10 compound mixture, 0.5 uM each; GFF II column
Description: as §1, §2, §3

[3] = target: T1, P38 MAP kinase; settings: stated as a known property of the ligand; cited from earlier work
[4] = P38 0, 2.5, 5 and 10 uM, 86002 and quinine 5 uM each, Diol column

mass spectrum of the collected protein fraction compared with the standard ([1]; 5 uM P38 MAP kinase + 5 uM 86002, Diol column)	reduction of the free compound UV peak with increasing P38 MAP kinase ([1]; P38 0, 3.5 and 5 uM, 10 compound mixture, 0.5 uM each, GFF II column)	level of the characteristic peaks in the mass spectrum of the protein fraction ([1]; P38, 10 compound mixture, 0.5 uM each, GFF II column)	reduction of the free compound UV peak with increasing tubulin [2]	Structure (SMILES)	identity of the compound extracted from the mixture and released from the protein (mass spectrum) [1]	reduction of the free compound UV peak with increasing P38 MAP kinase [1, 4]	level of the characteristic peak in the mass spectrum of the protein fraction ([1]; P38 2 uM, 100 compound mixture, 20 uM each, GFF II column)	affinity for the P38 MAP kinase protein target [3]
corresponded to the 86002 standard	concentration dependent reduction	at a level far higher than other peaks	negligible reduction	Fc1ccc(-c2nc3n(c2-c2ccncc2)CCS3)cc1 [SKB86002]	identified as 86002	concentration dependant reduction	binds and extracts; also recorded: at a level far higher than other peaks	micromolar affinity
–	–	–	–	C=C[C@H]1CN2CC[C@H]1C[C@H]2[C@H](O)c1ccnc2ccc(OC)cc12.Cl [quinine, quinine monohydrochloride]	not quinine	negligible reduction	–	–
